Data reported in ChEMBL document CHEMBL1201862, “PubChem BioAssay data set” (2004).
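Assay format: 96-well plates, 48-hour exposure. GI50 = concentration required for 50% inhibition of growth.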 Active and inactive are the calls of the source. No stated cut-off is given here; in the data, active = GI50 up to about 1.1 µM and inactive = higher.

Legend:
Assay in all cases: DTP human tumour cell line panel, 48 h
786-0 = tested on: 786-0
A549 = tested on: A549
ACHN = tested on: ACHN
BT-549 = tested on: BT-549
CAKI-1 = tested on: CAKI-1
CCRF-CEM = tested on: CCRF-CEM
COLO 205 = tested on: COLO 205
DU-145 = tested on: DU-145
EKVX = tested on: EKVX
HCC 2998 = tested on: HCC 2998
HCT-116 = tested on: HCT-116
HCT-15 = tested on: HCT-15
HL-60 = tested on: HL-60
HOP-62 = tested on: HOP-62
HOP-92 = tested on: HOP-92
HT-29 = tested on: HT-29
Hs-578T = tested on: Hs-578T
IGROV-1 = tested on: IGROV-1
K562 = tested on: K562
KM12 = tested on: KM12
LOX IMVI = tested on: LOX IMVI
M14 = tested on: M14
MCF7 = tested on: MCF7
MDA-MB-231 = tested on: MDA-MB-231
MDA-MB-435 = tested on: MDA-MB-435
MDA-N = tested on: MDA-N
MOLT-4 = tested on: MOLT-4
Malme-3M = tested on: Malme-3M
NCI-H226 = tested on: NCI-H226
NCI-H23 = tested on: NCI-H23
NCI-H460 = tested on: NCI-H460
NCI-H522 = tested on: NCI-H522
NCI/ADR-RES = tested on: NCI/ADR-RES
OVCAR-3 = tested on: OVCAR-3
OVCAR-4 = tested on: OVCAR-4
OVCAR-5 = tested on: OVCAR-5
OVCAR-8 = tested on: OVCAR-8
PC-3 = tested on: PC-3
RPMI-8226 = tested on: RPMI-8226
RXF 393 = tested on: RXF 393
SF-268 = tested on: SF-268
SF-295 = tested on: SF-295
SF-539 = tested on: SF-539
SK-MEL-28 = tested on: SK-MEL-28
SK-MEL-2 = tested on: SK-MEL-2
SK-MEL-5 = tested on: SK-MEL-5
SK-OV-3 = tested on: SK-OV-3
SN12C = tested on: SN12C
SNB-19 = tested on: SNB-19
SNB-75 = tested on: SNB-75
SR = tested on: SR
SW-620 = tested on: SW-620
T47D = tested on: T47D
TK-10 = tested on: TK-10
U-251 = tested on: U-251
UACC-257 = tested on: UACC-257
UACC-62 = tested on: UACC-62
UO-31 = tested on: UO-31
A498 = tested on: A498

SMILES: Nc1c2ccccc2nc2ccc(C(=O)Nc3ccc(S(N)(=O)=O)cc3)cc12
- GI50 (786-0): > 100 µM (inactive)
- GI50 (A549): > 100 µM (inactive)
- GI50 (ACHN): > 100 µM (inactive)
- GI50 (BT-549): > 100 µM (inactive)
- GI50 (CAKI-1): > 100 µM (inactive)
- GI50 (CCRF-CEM): > 100 µM (inactive)
- GI50 (COLO 205): > 100 µM (inactive)
- GI50 (DU-145): > 100 µM (inactive)
- GI50 (EKVX): > 100 µM (inactive)
- GI50 (HCC 2998): > 100 µM (inactive)
- GI50 (HCT-116): > 100 µM (inactive)
- GI50 (HCT-15): > 100 µM
- GI50 (HL-60): > 100 µM (inactive)
- GI50 (HOP-62): > 100 µM (inactive)
- GI50 (HOP-92): > 100 µM (inactive)
- GI50 (HT-29): > 100 µM (inactive)
- GI50 (Hs-578T): > 100 µM (inactive)
- GI50 (IGROV-1): > 100 µM (inactive)
- GI50 (K562): > 100 µM (inactive)
- GI50 (KM12): > 100 µM (inactive)
- GI50 (LOX IMVI): > 100 µM (inactive)
- GI50 (M14): > 100 µM (inactive)
- GI50 (MCF7): > 100 µM (inactive)
- GI50 (MDA-MB-231): > 100 µM (inactive)
- GI50 (MDA-MB-435): > 100 µM (inactive)
- GI50 (MDA-N): > 100 µM (inactive)
- GI50 (MOLT-4): > 100 µM (inactive)
- GI50 (Malme-3M): > 100 µM (inactive)
- GI50 (NCI-H226): > 100 µM (inactive)
- GI50 (NCI-H23): > 100 µM (inactive)
- GI50 (NCI-H460): > 100 µM (inactive)
- GI50 (NCI-H522): > 100 µM (inactive)
- GI50 (NCI/ADR-RES): > 100 µM (inactive)
- GI50 (OVCAR-3): > 100 µM (inactive)
- GI50 (OVCAR-4): > 100 µM (inactive)
- GI50 (OVCAR-5): > 100 µM (inactive)
- GI50 (OVCAR-8): > 100 µM (inactive)
- GI50 (PC-3): > 100 µM (inactive)
- GI50 (RPMI-8226): > 100 µM (inactive)
- GI50 (RXF 393): > 100 µM (inactive)
- GI50 (SF-268): > 100 µM (inactive)
- GI50 (SF-295): > 100 µM (inactive)
- GI50 (SF-539): > 100 µM (inactive)
- GI50 (SK-MEL-28): > 100 µM (inactive)
- GI50 (SK-MEL-2): > 100 µM (inactive)
- GI50 (SK-MEL-5): > 100 µM (inactive)
- GI50 (SK-OV-3): > 100 µM (inactive)
- GI50 (SN12C): > 100 µM (inactive)
- GI50 (SNB-19): > 100 µM (inactive)
- GI50 (SNB-75): > 100 µM (inactive)
- GI50 (SR): > 100 µM (inactive)
- GI50 (SW-620): > 100 µM (inactive)
- GI50 (T47D): > 100 µM (inactive)
- GI50 (TK-10): > 100 µM (inactive)
- GI50 (U-251): > 100 µM (inactive)
- GI50 (UACC-257): > 100 µM (inactive)
- GI50 (UACC-62): > 100 µM (inactive)
- GI50 (UO-31): > 100 µM (inactive)

SMILES: COC(=O)C1C2CCCN2OC1(C)CO (stereo not given)
- GI50 (786-0): > 100 µM (inactive)
- GI50 (A498): > 100 µM (inactive)
- GI50 (A549): > 100 µM (inactive)
- GI50 (ACHN): > 100 µM (inactive)
- GI50 (BT-549): > 100 µM (inactive)
- GI50 (CAKI-1): > 100 µM (inactive)
- GI50 (CCRF-CEM): > 100 µM (inactive)
- GI50 (COLO 205): > 100 µM (inactive)
- GI50 (DU-145): > 100 µM (inactive)
- GI50 (EKVX): > 100 µM (inactive)
- GI50 (HCT-116): > 100 µM (inactive)
- GI50 (HCT-15): > 100 µM
- GI50 (HL-60): > 100 µM (inactive)
- GI50 (HOP-62): > 100 µM (inactive)
- GI50 (HT-29): > 100 µM (inactive)
- GI50 (Hs-578T): > 100 µM (inactive)
- GI50 (IGROV-1): > 100 µM (inactive)
- GI50 (K562): > 100 µM (inactive)
- GI50 (KM12): > 100 µM (inactive)
- GI50 (LOX IMVI): > 100 µM (inactive)
- GI50 (M14): > 100 µM (inactive)
- GI50 (MCF7): > 100 µM (inactive)
- GI50 (MDA-MB-231): > 100 µM (inactive)
- GI50 (MDA-MB-435): > 100 µM (inactive)
- GI50 (MDA-N): > 100 µM (inactive)
- GI50 (MOLT-4): > 100 µM (inactive)
- GI50 (NCI-H226): > 100 µM (inactive)
- GI50 (NCI-H23): > 100 µM (inactive)
- GI50 (NCI-H460): > 100 µM (inactive)
- GI50 (NCI-H522): > 100 µM (inactive)
- GI50 (NCI/ADR-RES): > 100 µM (inactive)
- GI50 (OVCAR-3): > 100 µM (inactive)
- GI50 (OVCAR-4): > 100 µM (inactive)
- GI50 (OVCAR-5): > 100 µM (inactive)
- GI50 (OVCAR-8): > 100 µM (inactive)
- GI50 (PC-3): > 100 µM (inactive)
- GI50 (RPMI-8226): > 100 µM (inactive)
- GI50 (SF-268): > 100 µM (inactive)
- GI50 (SF-295): > 100 µM (inactive)
- GI50 (SF-539): > 100 µM (inactive)
- GI50 (SK-MEL-28): > 100 µM (inactive)
- GI50 (SK-MEL-2): > 100 µM (inactive)
- GI50 (SK-MEL-5): > 100 µM (inactive)
- GI50 (SK-OV-3): > 100 µM (inactive)
- GI50 (SN12C): > 100 µM (inactive)
- GI50 (SNB-19): > 100 µM (inactive)
- GI50 (SNB-75): > 100 µM (inactive)
- GI50 (SR): > 100 µM (inactive)
- GI50 (SW-620): > 100 µM (inactive)
- GI50 (T47D): > 100 µM (inactive)
- GI50 (TK-10): > 100 µM (inactive)
- GI50 (U-251): > 100 µM (inactive)
- GI50 (UACC-257): > 100 µM (inactive)
- GI50 (UACC-62): > 100 µM (inactive)
- GI50 (UO-31): > 100 µM (inactive)

SMILES: O=C(NCCCCCCCCCCCCNC(=O)Nc1cccc2ccccc12)Nc1cccc2ccccc12
- GI50 (786-0): 13.5 µM (inactive)
- GI50 (A498): 16.9 µM (inactive)
- GI50 (A549): 18.2 µM (inactive)
- GI50 (ACHN): 14 µM (inactive)
- GI50 (BT-549): 14.4 µM (inactive)
- GI50 (CAKI-1): 17.9 µM (inactive)
- GI50 (CCRF-CEM): 16.6 µM (inactive)
- GI50 (COLO 205): 20.6 µM (inactive)
- GI50 (DU-145): 24.3 µM (inactive)
- GI50 (EKVX): 19.1 µM (inactive)
- GI50 (HCC 2998): 14.2 µM (inactive)
- GI50 (HCT-116): 17.5 µM (inactive)
- GI50 (HCT-15): 18.4 µM
- GI50 (HL-60): 18.2 µM (inactive)
- GI50 (HOP-62): 6.15 µM (inactive)
- GI50 (HOP-92): 12.1 µM (inactive)
- GI50 (HT-29): 21 µM (inactive)
- GI50 (Hs-578T): 14.7 µM (inactive)
- GI50 (IGROV-1): 18.4 µM (inactive)
- GI50 (K562): 20.2 µM (inactive)
- GI50 (KM12): 18.4 µM (inactive)
- GI50 (LOX IMVI): 18 µM (inactive)
- GI50 (M14): 20.1 µM (inactive)
- GI50 (MCF7): 18.3 µM (inactive)
- GI50 (MDA-MB-231): 20.7 µM (inactive)
- GI50 (MDA-MB-435): 17.9 µM (inactive)
- GI50 (MDA-N): 17.4 µM (inactive)
- GI50 (MOLT-4): 20.3 µM (inactive)
- GI50 (Malme-3M): 15.3 µM (inactive)
- GI50 (NCI-H23): 16.8 µM (inactive)
- GI50 (NCI-H460): 15.5 µM (inactive)
- GI50 (NCI-H522): 13.7 µM (inactive)
- GI50 (NCI/ADR-RES): 24.1 µM (inactive)
- GI50 (OVCAR-3): 16.7 µM (inactive)
- GI50 (OVCAR-4): 11.2 µM (inactive)
- GI50 (OVCAR-5): 25.2 µM (inactive)
- GI50 (OVCAR-8): 22.9 µM (inactive)
- GI50 (PC-3): 16.2 µM (inactive)
- GI50 (RPMI-8226): 19.5 µM (inactive)
- GI50 (RXF 393): 15.2 µM (inactive)
- GI50 (SF-268): 14.3 µM (inactive)
- GI50 (SF-295): 14.1 µM (inactive)
- GI50 (SF-539): 13.2 µM (inactive)
- GI50 (SK-MEL-28): 19.5 µM (inactive)
- GI50 (SK-MEL-2): 15.2 µM (inactive)
- GI50 (SK-MEL-5): 20.8 µM (inactive)
- GI50 (SN12C): 17.6 µM (inactive)
- GI50 (SNB-19): 15.1 µM (inactive)
- GI50 (SNB-75): 12.9 µM (inactive)
- GI50 (SR): 16.7 µM (inactive)
- GI50 (SW-620): 17.4 µM (inactive)
- GI50 (T47D): 19.1 µM (inactive)
- GI50 (TK-10): 17.7 µM (inactive)
- GI50 (U-251): 14.3 µM (inactive)
- GI50 (UACC-257): > 10 µM (inactive)
- GI50 (UACC-62): 12.6 µM (inactive)
- GI50 (UO-31): 19.1 µM (inactive)
